Measurements as given in patent US10233426B2, “Method for inducing cardiac differentiation of pluripotent stem cell with low-molecular compounds” (KYOTO UNIVERSITY, priority 2014, dated 2019).

Test system: monkey ES cell line transfected with an αMHC promoter-driven GFP gene
Assay: Chemical screening: GFP fluorometry for cardiac differentiation of monkey ES cells
Assay type: cell-based, cynomolgus monkey
Settings: for intensity of GFP fluorescence relative to control culture (KY02111 only, assigned to one): GFP fluorometry day 9
Procedure: Pluripotent stem cells were cultured in culture media to which the test compounds were added in different concentrations (0.3 μM, 1 μM, 3 μM and 10 μM) in early phase and late phase of differentiation of the cells. Cells from the culture were subjected to GFP fluorometry in accordance with the cardiac differentiation protocol shown in FIG. 1a. Besides the test compounds, 10 μM KY02111 was included in the culture media for the late phase differentiation. The intensity of GFP fluorescence determined in the cells from the control culture, which was cultured with no test compound other than KY02111, was assigned to one.
The scheme of chemical screening is illustrated in FIG. 1a. Compounds were screened for the ability of increasing GFP fluorescence compared with the control (KY02111 alone) using a monkey ES cell line transfected with an αMHC promoter-driven GFP gene (Minami et al., Cell Reports 2, 1448-1460, 2012, which is incorporated herein by reference). The ES cell line was derived from a monkey ES cell line (cynomolgus monkey CMK6.4) by transfecting the cells with a vector which expresses green fluorescent protein (GFP) under control by a promoter of α-MHC gene (a marker of cardiac differentiation). The cells were plated at 4.0×10^5 cells per well in 6 well plates (Asahi Glass/5816-006: Ezview culture plates) and cultured for nine days in an IMDM-based medium for cardiac differentiation (200 ml IMDM medium (Sigma 13390), with 50 ml calf serum (GIBCO 10099-141), 2.5 ml MEM non-essential amino acid solution (Sigma M7145), 2.5 ml penicillin-streptomycin ([…]), 2.5 ml 200 mM L-glutamine, 2 ul 2-mercaptoethanol (Sigma M7522), and 255 ul 5N NaOH). Each test compound was added to the medium at different concentrations in the early phase (day 0 to day 3) and the late phase (day 4 to day 7) of cardiac differentiation. Cells obtained from the culture on day 9 were subjected to GFP fluorometry with a Metamorph imaging system. […]

[1] = test compound 0.3 μM in Early phase (day 0 to day 3), 10 μM KY02111 in late phase
[2] = test compound 0.3 μM in Late phase (day 4 to day 7) with 10 μM KY02111
[3] = test compound 1 μM in Early phase (day 0 to day 3), 10 μM KY02111 in late phase
[4] = test compound 1 μM in Late phase (day 4 to day 7) with 10 μM KY02111
[5] = test compound 3 μM in Early phase (day 0 to day 3), 10 μM KY02111 in late phase
[6] = test compound 3 μM in Late phase (day 4 to day 7) with 10 μM KY02111
[7] = test compound 10 μM in Early phase (day 0 to day 3), 10 μM KY02111 in late phase
[8] = test compound 10 μM in Late phase (day 4 to day 7) with 10 μM KY02111

SMILES	intensity of GFP fluorescence relative to control culture (KY02111 only, assigned to one) [1]	intensity of GFP fluorescence relative to control culture (KY02111 only, assigned to one) [2]	intensity of GFP fluorescence relative to control culture (KY02111 only, assigned to one) [3]	intensity of GFP fluorescence relative to control culture (KY02111 only, assigned to one) [4]	intensity of GFP fluorescence relative to control culture (KY02111 only, assigned to one) [5]	intensity of GFP fluorescence relative to control culture (KY02111 only, assigned to one) [6]	intensity of GFP fluorescence relative to control culture (KY02111 only, assigned to one) [7]	intensity of GFP fluorescence relative to control culture (KY02111 only, assigned to one) [8]	increase of cardiac differentiation (3 to 10 μM in early phase, alone or in combination with KY02111 (10 μM in late phase), FIG. 1b)	cardiac differentiation (screening conclusion) (under appropriate conditions, Table 1)
COc1ccc(-c2ccc3c(N4CCOCC4)nc(N4C[C@@H](C)O[C@@H](C)C4)nc3n2)cc1CO [K00063794]	0.18	0.95	0.01	0.85	0	0.21	0	0	–	–
O=c1[nH]c2ccccc2n1C1CCN(Cc2ccc(-c3nc4cc5[nH]cnc5cc4nc3-c3ccccc3)cc2)CC1 [Akt inhibitor 8]	1.2	1.11	0.96	1.57	0.11	1.33	0	1.11	–	–
CC(C)(C)c1ccc(S(=O)(=O)Nc2ccc(-n3ccnc3)cc2)cc1 [ISCK03]	0.08	1.23	0	0.8	0	0.79	0	0.88	–	–
Cc1ccc(-n2nc(C(C)(C)C)cc2NC(=O)Nc2ccc(OCCN3CCOCC3)c3ccccc23)cc1 [BIRB796]	1.2	1.05	0.9	0.81	0.95	0.55	0.08	0.29	–	–
OCCn1cc(-c2cnc3nnn(Cc4ccc5ncccc5c4)c3n2)cn1 [PF042I7903]	1.02	1.09	0.99	1.3	0.91	0.82	0.62	0.78	–	–
CC(C)(O)/C=C/C(=O)[C@](C)(O)[C@H]1[C@H](O)C[C@@]2(C)[C@@H]3CC=C4[C@@H](C=C(O)C(=O)C4(C)C)[C@]3(C)C(=O)C[C@]12C [Cucurbitaonl]	0.11	1.62	0	0	0	0	0	0	–	–
CC(=O)O[C@@]12C[C@@H](C)[C@@]3(O)[C@@H](C=C(CO)C[C@]4(O)C(=O)C(C)=C[C@@H]34)[C@@H]1C2(C)C [Prostratin]	0.79	0.72	2.31	0.3	5.42	0.01	6.88	0	three- to eight-fold	promoted
Cc1cc(Nc2ncc3c(n2)N(C)C(=O)N(c2cc(NC(=O)c4cccc(C(F)(F)F)c4)ccc2C)C3)n(C)n1 [SC-1]	0.16	0.14	0	0	0	0	0	0	–	–
c1cc(-c2cnn3cc(-c4ccc(OCCN5CCCCC5)cc4)cnc23)ccn1 [Dorsomorphin]	0.13	0.96	0.03	1.67	0	1.22	0	0.89	–	–
CCN(CC)CCCCNc1ncc2cc(-c3cc(OC)cc(OC)c3)c(NC(=O)NC(C)(C)C)nc2n1 [PD173074]	0.02	0.23	0	0.08	0	0	0	0	–	–
Cc1c[nH]c(/C=C2\C(=O)Nc3ccccc32)c1CCC(=O)O [SU5402]	0.09	0.89	0	1	0	0.46	0	0.06	–	–
NC(=O)c1ccc(-c2nc(-c3ccccn3)c(-c3ccc4c(c3)OCO4)[nH]2)cc1 [5B431542]	0.61	1.2	0.1	1.52	0	1.44	0	1.58	–	–
COc1ccc2c(c1)c(C1=C(c3c[nH]c4ccccc34)C(=O)NC1=O)cn2CCCN(C)C [Go6983]	1.1	1.12	0.98	0.62	2.31	0.45	2.12	0.13	–	–
